Laboratory results taken from patent US20050008896A1, “Luminous organic compound and manufacturing method” (Orient Chemical Ind., Ltd., priority 2003, published 2005).
Where two headings read alike, the source gives them in different places.

Key:
[1] = stood at room temperature overnight
Procedure: A method of measurement of the solubility is as follows. After the prescribed amount of the compound was added to each solvent, it was heated by water bath and irradiated supersonic wave for 1 hour. It was stood at room temperature overnight, and filtrated. Obtained residue was dried. Amount of insoluble residue was weighed, and solubility (w/v %) was determined.

[2] = Fluorescence (photoluminescence) intensity in ethanol, fluorescence spectrophotometer RF-5300PC; format: physicochemical; details: for Fluorescence Intensity / center of Luminous Wave: 25 mg of compound in 100 ml of ethanol; for Relative Value of Fluorescence Intensity, Relative Value (2) (Related to Metal Complex Intermediate 3): metal complex intermediate 3 regarded as 1.00
Procedure: Fluorescence intensity of each obtained compound was measured in order to evaluate fluorescence property.
A method of the evaluation is as follows. 25 mg of each compound was dissolved in 100 ml of ethanol respectively. The fluorescence intensity, photoluminescence intensity, was measured by a fluorescence spectrophotometer RF-5300PC that is available from Shimadzu Corporation. The measured results of the luminous organic compounds 1 to 9 and 11, the comparative compounds 1 to 3 and the metal complex intermediate 1 to 3 are indicated in Table 3. […] The relative value (2) of the fluorescence intensity indicates the value related to the fluorescence intensity of the metal complex intermediate 3 regarded as 1.00.

[3] = comparative compound 3 regarded as 1.00

Structure (SMILES) | Solubility, Ethanol [1] [w/v %] | Solubility, Ethyl Acetate [1] | Solubility, Methyl Ethyl Ketone [1] | Solubility, Toluene [1] [w/v %] | Solubility, Xylene [1] [w/v %] | Relative Value of Fluorescence Intensity, Relative Value (1) (Related to Comparative Compound 3) [2] | Fluorescence Intensity [2] | Relative Value of Fluorescence Intensity, Relative Value (2) (Related to Metal Complex Intermediate 3) [2] | center of Luminous Wave [2] | Relative Value of Fluorescence Intensity, Relative Value (1) (Related to Comparative Compound 3) [2, 3]
C[N+](C)(C)c1ccc(-c2ccc([N+](C)(C)C)cc2)cc1.O=C(C=C([O-])C(F)(F)F)c1ccc2ccccc2c1.O=C(C=C([O-])C(F)(F)F)c1ccc2ccccc2c1.O=C(C=C([O-])C(F)(F)F)c1ccc2ccccc2c1.O=C(C=C([O-])C(F)(F)F)c1ccc2ccccc2c1.O=C(C=C([O-])C(F)(F)F)c1ccc2ccccc2c1.O=C(C=C([O-])C(F)(F)F)c1ccc2ccccc2c1.O=C(C=C([O-])C(F)(F)F)c1ccc2ccccc2c1.O=C(C=C([O-])C(F)(F)F)c1ccc2ccccc2c1.[Eu+3].[Eu+3] [Luminous Organic Compound 5] | 0.37 | 3.46 w/v % | over 10.0 w/v % | 0.30 | 0.52 | 1.28 | 644 | 1.30 | – | –
C[N+](C)(C)c1ccc([N+](C)(C)C)cc1.O=C(C=C([O-])C(F)(F)F)c1ccc2ccccc2c1.O=C(C=C([O-])C(F)(F)F)c1ccc2ccccc2c1.O=C(C=C([O-])C(F)(F)F)c1ccc2ccccc2c1.O=C(C=C([O-])C(F)(F)F)c1ccc2ccccc2c1.O=C(C=C([O-])C(F)(F)F)c1ccc2ccccc2c1.O=C(C=C([O-])C(F)(F)F)c1ccc2ccccc2c1.O=C(C=C([O-])C(F)(F)F)c1ccc2ccccc2c1.O=C(C=C([O-])C(F)(F)F)c1ccc2ccccc2c1.[Eu+3].[Eu+3] [Luminous Organic Compound 4] | 0.08 | over 10.0 w/v % | over 10.0 w/v % | 0.23 | 0.22 | 1.52 | 766 | 1.55 | (613 nm) | –
O=C(C=C([O-])C(F)(F)F)c1cccs1.O=C(C=C([O-])C(F)(F)F)c1cccs1.O=C(C=C([O-])C(F)(F)F)c1cccs1.[Eu+3] [Metal Complex Intermediate 2] | – | – | – | – | – | – | 566 | 1.15 | (613 nm) | 1.13
C[N+](C)(C)CCCCCC[N+](C)(C)C.O=C(C=C([O-])C(F)(F)F)c1ccc2ccccc2c1.O=C(C=C([O-])C(F)(F)F)c1ccc2ccccc2c1.O=C(C=C([O-])C(F)(F)F)c1ccc2ccccc2c1.O=C(C=C([O-])C(F)(F)F)c1ccc2ccccc2c1.O=C(C=C([O-])C(F)(F)F)c1ccc2ccccc2c1.O=C(C=C([O-])C(F)(F)F)c1ccc2ccccc2c1.O=C(C=C([O-])C(F)(F)F)c1ccc2ccccc2c1.O=C(C=C([O-])C(F)(F)F)c1ccc2ccccc2c1.[Eu+3].[Eu+3] [Luminous Organic Compound 3] | 0.14 | 9.01 w/v % | over 10.0 w/v % | 0.31 | 0.18 | 1.63 | 822 | 1.66 | (613 nm) | –
O=C(C=C([O-])C(F)(F)F)c1ccccc1.O=C(C=C([O-])C(F)(F)F)c1ccccc1.O=C(C=C([O-])C(F)(F)F)c1ccccc1.[Eu+3] [Metal Complex Intermediate 3] | – | – | – | – | – | – | 493 | (1.00) | (613 nm) | 0.98
C[N+](C)(C)CCCC[N+](C)(C)C.O=C(C=C([O-])C(F)(F)F)c1ccc2ccccc2c1.O=C(C=C([O-])C(F)(F)F)c1ccc2ccccc2c1.O=C(C=C([O-])C(F)(F)F)c1ccc2ccccc2c1.O=C(C=C([O-])C(F)(F)F)c1ccc2ccccc2c1.O=C(C=C([O-])C(F)(F)F)c1ccc2ccccc2c1.O=C(C=C([O-])C(F)(F)F)c1ccc2ccccc2c1.O=C(C=C([O-])C(F)(F)F)c1ccc2ccccc2c1.O=C(C=C([O-])C(F)(F)F)c1ccc2ccccc2c1.[Eu+3].[Eu+3] [Luminous Organic Compound 2] | 0.19 | 1.54 w/v % | over 10.0 w/v % | 0.24 | 0.10 | 1.48 | 744 | 1.50 | (613 nm) | –
C[N+](C)(C)CCCC[N+](C)(C)C.O=C(C=C([O-])C(F)(F)F)c1ccc2ccccc2c1.O=C(C=C([O-])C(F)(F)F)c1ccc2ccccc2c1.O=C(C=C([O-])C(F)(F)F)c1ccc2ccccc2c1.O=C(C=C([O-])C(F)(F)F)c1ccc2ccccc2c1.O=C(C=C([O-])C(F)(F)F)c1ccc2ccccc2c1.O=C(C=C([O-])C(F)(F)F)c1ccc2ccccc2c1.O=C(C=C([O-])C(F)(F)F)c1ccc2ccccc2c1.O=C(C=C([O-])C(F)(F)F)c1ccc2ccccc2c1.[Tb+3].[Tb+3] [Luminous Organic Compound 10] | 0.062 | 1.21 w/v % | over 10.0 w/v % | 0.43 | 0.32 | – | – | – | – | –
C[N+](C)(C)CCCC[N+](C)(C)C.O=C(C=C([O-])C(F)(F)F)c1ccccc1.O=C(C=C([O-])C(F)(F)F)c1ccccc1.O=C(C=C([O-])C(F)(F)F)c1ccccc1.O=C(C=C([O-])C(F)(F)F)c1ccccc1.O=C(C=C([O-])C(F)(F)F)c1ccccc1.O=C(C=C([O-])C(F)(F)F)c1ccccc1.O=C(C=C([O-])C(F)(F)F)c1ccccc1.O=C(C=C([O-])C(F)(F)F)c1ccccc1.[Eu+3].[Eu+3] [Luminous Organic Compound 9] | 0.11 | 3.55 w/v % | over 10.0 w/v % | 0.30 | 0.12 | 1.00 | 502 | 1.02 | (612 nm) | –
C[N+](C)(C)c1ccc(C(c2ccc([N+](C)(C)C)cc2)c2ccc([N+](C)(C)C)cc2)cc1.O=C(C=C([O-])C(F)(F)F)c1ccc2ccccc2c1.O=C(C=C([O-])C(F)(F)F)c1ccc2ccccc2c1.O=C(C=C([O-])C(F)(F)F)c1ccc2ccccc2c1.O=C(C=C([O-])C(F)(F)F)c1ccc2ccccc2c1.O=C(C=C([O-])C(F)(F)F)c1ccc2ccccc2c1.O=C(C=C([O-])C(F)(F)F)c1ccc2ccccc2c1.O=C(C=C([O-])C(F)(F)F)c1ccc2ccccc2c1.O=C(C=C([O-])C(F)(F)F)c1ccc2ccccc2c1.O=C(C=C([O-])C(F)(F)F)c1ccc2ccccc2c1.O=C(C=C([O-])C(F)(F)F)c1ccc2ccccc2c1.O=C(C=C([O-])C(F)(F)F)c1ccc2ccccc2c1.O=C(C=C([O-])C(F)(F)F)c1ccc2ccccc2c1.[Eu+3].[Eu+3].[Eu+3] [Luminous Organic Compound 7] | 0.16 | 10.0 w/v % | over 10.0 w/v % | 0.14 | 0.16 | – | 835 | 1.69 | (613 nm) | 1.66
C[N+](C)(C)CCCC[N+](C)(C)C.O=C(C=C([O-])C(F)(F)F)c1cccs1.O=C(C=C([O-])C(F)(F)F)c1cccs1.O=C(C=C([O-])C(F)(F)F)c1cccs1.O=C(C=C([O-])C(F)(F)F)c1cccs1.O=C(C=C([O-])C(F)(F)F)c1cccs1.O=C(C=C([O-])C(F)(F)F)c1cccs1.O=C(C=C([O-])C(F)(F)F)c1cccs1.O=C(C=C([O-])C(F)(F)F)c1cccs1.[Eu+3].[Eu+3] [Luminous Organic Compound 8] | 0.15 | 0.88 w/v % | over 10.0 w/v % | 0.18 | 0.10 | 1.02 | 510 | 1.03 | (613 nm) | –
O=C(C=C([O-])C(F)(F)F)c1ccc2ccccc2c1.O=C(C=C([O-])C(F)(F)F)c1ccc2ccccc2c1.O=C(C=C([O-])C(F)(F)F)c1ccc2ccccc2c1.[Eu+3] [Metal Complex Intermediate 1] | – | – | – | – | – | – | 665 | 1.35 | (613 nm) | 1.32
